From the CheMixHub viscosity set
Where “and” joins values, the source holds several entries; their conditions need not be identical. Identical values can stand only once.

Assay: xn = mol fraction of the nth substance listed

COC(=O)c1ccccc1C(=O)OC + C1CCOC1
viscosity [mPa·s], 101 kPa
Conditions	x1 = 0.1001	x1 = 0.2019	x1 = 0.2966	x1 = 0.3989	x1 = 0.5009	x1 = 0.5992	x1 = 0.7006	x1 = 0.8013	x1 = 0.9004
293.15 K	0.7426	1.073	1.505	2.155	3.107	4.313	6.121	8.638	12.37
298.15 K	0.7028	0.9986	1.383	1.947	2.756	3.756	5.214	7.181	9.998
303.15 K	0.666	0.9314	1.276	1.769	2.463	3.303	4.496	6.063	8.238
308.15 K	0.6197	0.8698	1.181	1.616	2.217	2.93	3.92	5.189	6.906
313.15 K	0.6531	0.8136	1.097	1.483	2.007	2.619	3.45	4.494	5.87
318.15 K	0.557	0.7619	1.021	1.365	1.828	2.357	3.063	3.933	5.056
323.15 K	0.4957	0.7137	0.9522	1.261	1.674	2.136	2.739	3.474	4.404

O=CO + CCCC(C)=O
viscosity [mPa·s], 101 kPa
Conditions	x1 = 0.1002	x1 = 0.1998	x1 = 0.3016	x1 = 0.3992	x1 = 0.4881	x1 = 0.5974	x1 = 0.7186	x1 = 0.8392	x1 = 0.8701
298.15 K	0.5043	0.5479	0.6037	0.6689	0.7348	0.8418	1.003	1.198	1.262
308.15 K	0.4519	0.4876	0.5327	0.586	0.6424	0.7294	0.8532	1.011	1.058
318.15 K	0.4015	0.4344	0.4713	0.5146	0.5589	0.6331	0.7325	0.8607	0.8982

CCC(N)C(=O)[O-].[K+] (configuration not stated) + O
viscosity [mPa·s], 101.3 kPa
Conditions	x1 = 0.009	x1 = 0.019	x1 = 0.029	x1 = 0.039	x1 = 0.05	x1 = 0.06
303.15 K	0.988	1.223	1.552	1.974	2.518	3.297
308.15 K	0.884	1.093	1.394	1.74	2.206	2.877
313.15 K	0.803	0.984	1.257	1.559	1.962	2.544
318.15 K	0.728	0.89	1.133	1.399	1.757	2.257
323.15 K	0.67	0.813	1.032	1.272	1.585	2.017

O=[N+]([O-])[O-].O=[N+]([O-])[O-].[Ba+2] + O
viscosity [mPa·s], 100 kPa
Conditions	x1 = 0.0003	x1 = 0.001	x1 = 0.003	x1 = 0.004	x1 = 0.006
298.15 K	0.888	0.9055	0.9235	0.943	0.965
323.15 K	0.5475	0.562	0.5775	0.59	0.603

CC(Cl)(Cl)Cl + COC(C)=O
Conditions	viscosity
298.15 K, 101.33 kPa, x1 = 0.1	0.3907 mPa·s
298.15 K, 101.33 kPa, x1 = 0.101	0.3907 mPa·s
298.15 K, 101.33 kPa, x1 = 0.198	0.4156 mPa·s
298.15 K, 101.33 kPa, x1 = 0.199	0.4157 mPa·s
298.15 K, 101.33 kPa, x1 = 0.297	0.4438 mPa·s
298.15 K, 101.33 kPa, x1 = 0.3	0.445 mPa·s
298.15 K, 101.33 kPa, x1 = 0.398	0.4763 mPa·s
298.15 K, 101.33 kPa, x1 = 0.401	0.4774 mPa·s
298.15 K, 101.33 kPa, x1 = 0.499	0.513 mPa·s
298.15 K, 101.33 kPa, x1 = 0.5	0.5132 mPa·s and 0.5114 mPa·s
298.15 K, 101.33 kPa, x1 = 0.599	0.5525 mPa·s and 0.5545 mPa·s
298.15 K, 101.33 kPa, x1 = 0.699	0.6024 mPa·s
298.15 K, 101.33 kPa, x1 = 0.799	0.6574 mPa·s
298.15 K, 101.33 kPa, x1 = 0.901	0.7178 mPa·s
303.15 K, 101.3 kPa, x2 = 0.0993	0.6661 mPa·s
303.15 K, 101.3 kPa, x2 = 0.2042	0.6072 mPa·s
303.15 K, 101.3 kPa, x2 = 0.3008	0.5599 mPa·s
303.15 K, 101.3 kPa, x2 = 0.4008	0.5182 mPa·s
303.15 K, 101.3 kPa, x2 = 0.5039	0.4792 mPa·s
303.15 K, 101.3 kPa, x2 = 0.6038	0.4462 mPa·s
303.15 K, 101.3 kPa, x2 = 0.6968	0.4186 mPa·s
303.15 K, 101.3 kPa, x2 = 0.7992	0.3921 mPa·s
303.15 K, 101.3 kPa, x2 = 0.902	0.3668 mPa·s

CC(Cl)(Cl)Cl + CC1CCCO1
298.15 K, 101.33 kPa
Conditions	viscosity [mPa·s]
x1 = 0.099	0.5033
x1 = 0.2	0.5324
x1 = 0.299	0.5617
x1 = 0.398	0.5917
x1 = 0.5	0.6234
x1 = 0.6	0.655
x1 = 0.7	0.6873
x1 = 0.8	0.7209
x1 = 0.869	0.7447

CC/C(C)=N/O + CCC(C)=O
viscosity [mPa·s], 101.3 kPa
Conditions	x1 = 0.0846	x1 = 0.1716	x1 = 0.2627	x1 = 0.3557	x1 = 0.4528	x1 = 0.5541	x1 = 0.6588	x1 = 0.768	x1 = 0.8817
293.15 K	0.459	0.533	0.625	0.759	0.922	1.162	1.511	2.066	3.035
298.15 K	0.438	0.508	0.592	0.714	0.86	1.073	1.368	1.836	2.619
303.15 K	0.416	0.479	0.558	0.667	0.802	0.987	1.249	1.655	2.306

O=CO + O=[N+]([O-])c1ccccc1
viscosity [mPa·s], 101 kPa
Conditions	x1 = 0.1791	x1 = 0.2956	x1 = 0.4132	x1 = 0.5229	x1 = 0.6396	x1 = 0.7402	x1 = 0.8361
298.15 K	1.676	1.636	1.604	1.591	1.593	1.592	1.576
323.15 K	1.114	1.084	1.054	1.043	1.025	1.029	1.005

O=[N+]([O-])[O-].O=[N+]([O-])[O-].[Ba+2] + N
293.15 K, 101 kPa
Conditions	viscosity [mPa·s]
x1 = 0.06	0.171
x1 = 0.13	0.24
x1 = 0.28	0.366
x1 = 0.58	0.81
